target: T1, human MetAP2 (Homo sapiens, UniProt P50579); assay: MetAP2 enzymatic screening test (isolated enzyme, Met-Pro-Arg-pNa substrate, absorbance at 405 nm); assay type: biochemical; conditions: read-out: % inhibition hMETAP2 at 100 nM
T1 construct: made in house; host or cells: Sf9 insect cells (baculovirus)
Protocol: The compounds according to the invention underwent biochemical studies in order to determine their capacity to inhibit the enzyme methionine-aminopeptidase2 (enzymatic test on isolated enzyme).
MetAP2 Enzymatic Screening Test
For the enzymatic test, human MetAP2 protein was obtained from a culture supernatant of insect cells (sf9) infected with MetAP2 recombinant baculovirus.
Before performing the experiment, dialysis of the MetAP2 supernatant is performed over 24 hours at 4° C. in a buffer (10 mM Hepes, 100 mM KCl, 10% glycerol, pH 7.4) in the presence of EDTA (1 mM) over the first 12 hours.
The dialysis supernatant is recovered and manganese, used as cofactor, is added to a final concentration of 300 μM.
The enzymatic test is a test in two steps.
Consequently, the second step consists in reacting the peptides cleaved in the preceding step with a second peptidase in order to release the chromophore.

T1 sequence (P50579 whole entry): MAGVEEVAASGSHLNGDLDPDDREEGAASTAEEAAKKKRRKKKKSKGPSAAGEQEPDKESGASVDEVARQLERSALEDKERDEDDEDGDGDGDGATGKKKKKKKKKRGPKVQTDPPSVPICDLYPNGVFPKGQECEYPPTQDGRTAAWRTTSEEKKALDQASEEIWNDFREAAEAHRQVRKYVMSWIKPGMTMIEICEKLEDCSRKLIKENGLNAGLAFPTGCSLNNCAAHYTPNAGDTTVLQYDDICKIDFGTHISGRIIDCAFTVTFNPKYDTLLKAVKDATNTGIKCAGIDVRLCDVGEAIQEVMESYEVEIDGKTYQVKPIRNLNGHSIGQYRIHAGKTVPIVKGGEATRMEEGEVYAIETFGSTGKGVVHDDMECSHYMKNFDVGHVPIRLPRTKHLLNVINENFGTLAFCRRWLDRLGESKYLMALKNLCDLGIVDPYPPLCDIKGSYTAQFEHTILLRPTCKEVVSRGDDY

| inhibition at 0.1 µM | SMILES |
| --- | --- |
| 70% | CCn1c(=O)c2cn[nH]c2c2ccc(-c3ccc(C(=O)N4CCN(C)CC4)cc3)cc21 [Compound 21, 5-ethyl-7-[4-(4-methylpiperazine-1-carbonyl)phenyl]-1,5-dihydro-4H-pyrazolo[4,3-c]quinolin-4-one] |
| 69% | CCn1c(=O)c2cn[nH]c2c2ccc(-c3ccc(C(C)N4CCCC4)cc3)cc21 (stereo not drawn) [Compound 22, 5-ethyl-7-[4-(1-pyrrolidin-1-yl-ethyl)phenyl]-1,5-dihydro-4H-pyrazolo[4,3-c]quinolin-4-one] |
| 67% | CCn1c(=O)c2cn[nH]c2c2ccc(-c3ccc(N)cc3C)cc21 [Compound 24, 7-(4-amino-2-methylphenyl)-5-ethyl-1,5-dihydro-4H-pyrazolo[4,3-c]quinolin-4-one] |
| 67% | CCn1c(=O)c2cn[nH]c2c2ccc(-c3ccc(F)c(C(=O)NC)c3)cc21 [Compound 27, 5-(5-ethyl-4-oxo-4,5-dihydro-1H-pyrazolo[4,3-c]quinolin-7-yl)-2-fluoro-N-methylbenzamide] |
| 67% | CCn1c(=O)c2cn[nH]c2c2ccc(-c3cc(OC)ccc3F)cc21 [Compound 28, 5-ethyl-7-(2-fluoro-5-methoxyphenyl)-1,5-dihydro-4H-pyrazolo[4,3-c]quinolin-4-one] |
| 67% | CCn1c(=O)c2cn[nH]c2c2ccc(-c3ccc(C(=O)N4CCOCC4)c(Cl)c3)cc21 [Compound 29, 7-[3-chloro-4-(morpholine-4-carbonyl)phenyl]-5-ethyl-1,5-dihydro-4H-pyrazolo[4,3-c]quinolin-4-one] |
| 64% | CCn1c(=O)c2cn[nH]c2c2ccc(-c3cnc(N4CCN(C)CC4)nc3)cc21 [Compound 31, 5-ethyl-7-[2-(4-methylpiperazin-1-yl)pyrimidin-5-yl]-1,5-dihydro-4H-pyrazolo[4,3-c]quinolin-4-one] |
| 62% | CCn1c(=O)c2cn[nH]c2c2ccc(-c3ccc(C(N)=O)c(Cl)c3)cc21 [Compound 33, 2-chloro-4-(5-ethyl-4-oxo-4,5-dihydro-1H-pyrazolo[4,3-c]quinolin-7-yl)benzamide] |

The remaining lines, values behind:

| SMILES | inhibition at 0.1 µM |
| --- | --- |
| CCn1c(=O)c2cn[nH]c2c2ccc(-c3ccc(C(=O)NCCCN(C)C)cc3)cc21 [Compound 9, N-(3-dimethylaminopropyl)-4-(5-ethyl-4-oxo-4,5-dihydro-1H-pyrazolo[4,3-c]quinolin-7-yl)benzamide] | 78% |
| CCn1c(=O)c2cn[nH]c2c2ccc(-c3ccc(N4CCNCC4)cc3)cc21 [Compound 10, 5-ethyl-7-(4-piperazin-1-ylphenyl)-1,5-dihydro-4H-pyrazolo[4,3-c]quinolin-4-one] | 77% |
| CCn1c(=O)c2cn[nH]c2c2ccc(-c3ccc(N4CCN(C)CC4)cc3)cc21 [Compound 11, 5-ethyl-7-[4-(4-methylpiperazin-1-yl)phenyl]-1,5-dihydro-4H-pyrazolo[4,3-c]quinolin-4-one] | 76% |
| CCn1c(=O)c2cn[nH]c2c2ccc(-c3ccc(C(=O)NCCN(C)C)cc3)cc21 [Compound 13, N-(2-dimethylaminoethyl)-4-(5-ethyl-4-oxo-4,5-dihydro-1H-pyrazolo[4,3-c]quinolin-7-yl)benzamide] | 75% |
| CCn1c(=O)c2cn[nH]c2c2ccc(-c3ccc(C(C)N(C)C)cc3)cc21 (stereo not drawn) [Compound 15, 7-[4-(1-dimethylaminoethyl)phenyl]-5-ethyl-1,5-dihydro-4H-pyrazolo[4,3-c]quinolin-4-one] | 74% |
| CCn1c(=O)c2cn[nH]c2c2ccc(-c3ccc(C(=O)N4CCNCC4)cc3)cc21 [Compound 18, 5-ethyl-7-[4-(piperazine-1-carbonyl)phenyl]-1,5-dihydro-4H-pyrazolo[4,3-c]quinolin-4-one] | 72% |
| CCn1c(=O)c2cn[nH]c2c2ccc(-c3cnc(N4CCNCC4)nc3)cc21 [Compound 20, 5-ethyl-7-(2-piperazin-1-ylpyrimidin-5-yl)-1,5-dihydro-4H-pyrazolo[4,3-c]quinolin-4-one] | 70% |

— patent publication US20140235616A1, “PYRAZOLOQUINOLINONE DERIVATIVES, PREPARATION THEREOF AND THERAPEUTIC USE THEREOF” (SANOFI, priority 2011, published 2014)
